Data set [1] deals with Human alphaherpesvirus 1. The data set is described as follows: Antiviral activity against Human herpesvirus 1 at 50 uM by end point titration assay. In kind it is functional.
Data set [2] can be described thus: Selectivity index, ratio of CC50 for african green monkey Vero cells to EC50 for Mayaro virus. The class given is toxicity, cell-based. To be noted: read-out: Ratio CC50/EC50.
The nature of data set [3]: Cytotoxicity against Chlorocebus aethiops (African green monkey) Vero cells after 72 hr by MTT assay. The class given is cell-based. To be noted: chlorocebus sabaeus.
The subject of data set [4] is Human alphaherpesvirus 1. Nature of the data set: Antiviral activity against Human herpesvirus 1 at 10 uM by end point titration assay. The class given is functional.
The nature of data set [5]: Selectivity index, ratio of CC50 for african green monkey Vero cells to EC50 for Herpes simplex virus 1. To be noted: read-out: Ratio CC50/EC50. The class given is toxicity, cell-based.
The nature of data set [6]: Selectivity index, ratio of CC50 for african green monkey Vero cells to EC50 for Vesicular stomatitis virus. The class given is toxicity, cell-based. To be noted: read-out: Ratio CC50/EC50.
In data set [7] the test system is Vesicular stomatitis virus. Nature of the data set: Antiviral activity against Vesicular stomatitis virus infected Vero cells after 72 hr by plaque reduction assay. In kind it is functional, organism-based. For orientation: Plaques are areas of infected cells; plaque reduction assays count them against a control.
In another data set the test system is Mayaro virus. Nature of the data set: Antiviral activity against Mayaro virus infected in Vero cells after 72 hr by plaque reduction assay. The class given is functional, organism-based.
Data set [8] relates to Human alphaherpesvirus 1. Nature of the data set: Antiviral activity against Human herpesvirus 1 infected in Vero cells after 72 hr by plaque reduction assay. To be noted: Human alphaherpesvirus 1, Vero. In kind it is functional, organism-based.

The structures appear in SMILES notation.

By inhibition is commonly meant the change of the read-out against control, counted positive when it falls. What is called CC50 is the concentration that lowers cell viability or growth by half. For orientation: EC50 means the concentration that produces a half-maximal response.

`Cc1ccc(Nc2c(C(=O)O)cnc3c2cnn3-c2ccccc2)nc1`: in the data set on Human alphaherpesvirus 1 [1], the inhibition at 50 µM amounted to 60%.
In the case of `CCOC(=O)c1cnc2c(cnn2-c2ccccc2)c1Nc1cccc(C)n1`, the inhibition at 50 µM in the data set on Human alphaherpesvirus 1 [1] stood at 90%.
In the case of `CCOC(=O)c1cnc2c(cnn2-c2ccccc2)c1Nc1ccccc1`, in the data set with Human alphaherpesvirus 1 [1], 50 µM produced 90% inhibition.
Molecule `O=C(O)c1cnc2c(cnn2-c2ccccc2)c1Nc1ccc(Cl)cc1` had an inhibition at 50 µM in the data set with Human alphaherpesvirus 1 [1] of 68%.
`O=C(O)c1cnc2c(cnn2-c2ccccc2)c1Nc1cccc([N+](=O)[O-])c1` had an inhibition at 50 µM in the data set with Human alphaherpesvirus 1 [1] of 20.6%.
`CCOC(=O)c1cnc2c(cnn2-c2ccccc2)c1Nc1cccc(C)c1` had an inhibition at 50 µM in the data set on Human alphaherpesvirus 1 [1] of 90%.
`Nc1nc2c(ncn2COCCO)c(=O)[nH]1` [ACYCLOVIR]: the selectivity ratio in data set [2] and in data set [5] was 880 in each case. Also, the CC50 at 72 h in data set [3] came out at 960 µM. In the data set on Human alphaherpesvirus 1 [4], this molecule came in with an inhibition at 10 µM of 96%.
`CCOC(=O)c1cnc2c(cnn2-c2ccccc2)c1Nc1ccc(C)cc1` returned an inhibition at 50 µM in the data set with Human alphaherpesvirus 1 [1] of 69.2%.
Still for that read-out and setting: the figure for `COc1cccc(Nc2c(C(=O)O)cnc3c2cnn3-c2ccccc2)c1` is 75.5%; for `Cc1cccc(Nc2c(C(=O)O)cnc3c2cnn3-c2ccccc2)n1` it is 21%.
As for `O=C(O)c1cnc2c(cnn2-c2ccccc2)c1Nc1ccccc1`, the selectivity ratio in data set [6] worked out at 54; in [2], 28. The EC50 in data set [7] stood at 2.5 µM; in the data set with Mayaro virus, 4.8 µM. For the same molecule, it took 135 µM to reach half-maximal cytotoxicity in [3] (CC50 at 72 h). The inhibition at 50 µM with Human alphaherpesvirus 1 [1] was found to be 0%.
In the data set with Human alphaherpesvirus 1 [1], `Cc1ccnc(Nc2c(C(=O)O)cnc3c2cnn3-c2ccccc2)c1` showed an inhibition at 50 µM of 75%.
With `O=C(O)c1cnc2c(cnn2-c2ccccc2)c1Nc1ccc([N+](=O)[O-])cc1`, in the data set with Human alphaherpesvirus 1 [1], the inhibition at 50 µM turned out to be 80%.
Take `O=C(O)c1cnc2c(cnn2-c2ccccc2)c1Nc1cccc(Cl)c1`: the selectivity ratio was 37 in [6] and 71 in data set [2]. The EC50 in [7] was 1 µM; in the data set with Mayaro virus, 0.52 µM. The molecule further had a CC50 at 72 h in data set [3] of 37.4 µM. In addition, the inhibition at 50 µM in the data set with Human alphaherpesvirus 1 [1] amounted to 68%.
In data set [3], `O=C(O)c1cnc2c(cnn2-c2ccccc2)c1Nc1cccc(Br)c1` gave a CC50 at 72 h of 600 µM. This molecule also displayed an EC50 with Human alphaherpesvirus 1 [8] of 2.2 µM. The molecule further came in with an inhibition at 50 µM in the data set on Human alphaherpesvirus 1 [1] of 84%. Besides, in data set [5], the selectivity ratio worked out at 272.
The molecule `CCOC(=O)c1cnc2c(cnn2-c2ccccc2)c1Nc1cccc(OC)c1` returned an inhibition at 50 µM with Human alphaherpesvirus 1 [1] of 98%.
In the data set with Human alphaherpesvirus 1 [1], `CCOC(=O)c1cnc2c(cnn2-c2ccccc2)c1Nc1ccc([N+](=O)[O-])cc1` gave an inhibition at 50 µM of 0%.
For `CCOC(=O)c1cnc2c(cnn2-c2ccccc2)c1Nc1cccc(Br)c1`, the inhibition at 50 µM with Human alphaherpesvirus 1 [1] was found to be 70%.
Still for that read-out and setting: the figure for `CCOC(=O)c1cnc2c(cnn2-c2ccccc2)c1Nc1cccc(Cl)c1` is 60%.
`O=C(O)c1cnc2c(cnn2-c2ccccc2)c1Nc1cccc(F)c1`: in the data set on Human alphaherpesvirus 1 [1], the inhibition at 50 µM is 68%.
For `COc1ccc(Nc2c(C(=O)O)cnc3c2cnn3-c2ccccc2)cc1`, 50 µM produced 80.6% inhibition with Human alphaherpesvirus 1 [1].
For the molecule `CCOC(=O)c1cnc2c(cnn2-c2ccccc2)c1Nc1ccc(Br)cc1`, the inhibition at 50 µM in the data set on Human alphaherpesvirus 1 [1] was 75%.
On the same count and under the same terms, next, `CCOC(=O)c1cnc2c(cnn2-c2ccccc2)c1Nc1ccc(Cl)cc1`: 92%.
`CCOC(=O)c1cnc2c(cnn2-c2ccccc2)c1Nc1cccc([N+](=O)[O-])c1` registered a CC50 at 72 h in data set [3] of 1000 µM. The molecule also registered an EC50 in the data set with Human alphaherpesvirus 1 [8] of 6.8 µM. The same molecule yielded an inhibition at 50 µM in the data set with Human alphaherpesvirus 1 [1] of 90%. In addition, the selectivity ratio in data set [5] was 141.
As to `CCOC(=O)c1cnc2c(cnn2-c2ccccc2)c1Nc1ccc(C)cn1`, the inhibition at 50 µM in the data set on Human alphaherpesvirus 1 [1] is 90%.
Consider `Cc1cccc(Nc2c(C(=O)O)cnc3c2cnn3-c2ccccc2)c1`, for which, in the data set on Human alphaherpesvirus 1 [1], the inhibition at 50 µM came out at 38.5%.
As to `O=C(O)c1cnc2c(cnn2-c2ccccc2)c1Nc1ccc(Br)cc1`, the inhibition at 50 µM in the data set with Human alphaherpesvirus 1 [1] is 37%.
In the data set with Human alphaherpesvirus 1 [1], `CCOC(=O)c1cnc2c(cnn2-c2ccccc2)c1Nc1cc(C)ccn1` showed an inhibition at 50 µM of 60%.
`Cc1ccc(Nc2c(C(=O)O)cnc3c2cnn3-c2ccccc2)cc1`: at 50 µM the inhibition in the data set with Human alphaherpesvirus 1 [1] was 58.4%.
The same measure, in the same setting: the figure for `CCOC(=O)c1cnc2c(cnn2-c2ccccc2)c1Nc1cccc(F)c1` is 0%.
On to `CCOC(=O)c1cnc2c(cnn2-c2ccccc2)c1Nc1ccc(OC)cc1`, for which, in the data set on Human alphaherpesvirus 1 [1], the inhibition at 50 µM was determined as 75.5%.

These data come from ChEMBL document CHEMBL3045152, “Synthesis and antiviral activity of new 4-(phenylamino)/4-[(methylpyridin-2-yl)amino]-1-phenyl-1H-pyrazolo[3,4-b]pyridine-4-carboxylic acids derivatives” (Med Chem Res, 2007).
